Experimental data: paper PMC9310519, “Small-molecule inhibitor of intestinal anion exchanger SLC26A3 for treatment of hyperoxaluria and nephrolithiasis” (JCI Insight, 2022)

What was measured:
SLC26A3 (human) = SLC26A3 (human) (Homo sapiens, UniProt P40879); assay: YFP halide-sensor anion transport assay in HEK293 cells expressing human SLC26A3; type: cell-based
SLC26A3 (murine) = SLC26A3 (murine) (Mus musculus, UniProt Q9WVC8); assay: YFP oxalate/chloride exchange assay in FRT cells stably expressing murine SLC26A3; Transwell oxalate transport; type: cell-based
5-HT1A Human Serotonin = biological target: T1, 5-HT1A Human Serotonin (Homo sapiens, UniProt P08908); assay: biochemical; set-up: Eurofins SafetyScreen44 radioligand binding displacement, percent inhibition, duplicate; details: radioligand binding
T1 construct: gene HTR1A
Method: (§1) Possible off-target effects of DRAinh-A270 were investigated by panel screening (Eurofins SafetyScreen44). […] Testing for CYP450 and hERG inhibition also supported DRAinh-A270 safety (Supplemental Tables 2 and 3, respectively). Finally, metabolic stability of DRAinh-A270 was measured in mouse, rat, and human microsomes.

5-HT1B Human Serotonin = biological target: T2, 5-HT1B Human Serotonin (Homo sapiens, UniProt P28222); assay: biochemical; set-up: Eurofins SafetyScreen44 radioligand binding displacement, percent inhibition, duplicate; details: radioligand binding
T2 construct: gene HTR1B
Method: as §1

5-HT2A Human Serotonin = biological target: T3, 5-HT2A Human Serotonin (Homo sapiens, UniProt P28223); assay: biochemical; set-up: Eurofins SafetyScreen44 radioligand binding displacement, percent inhibition, duplicate; details: radioligand binding
T3 construct: gene HTR2A
Method: as §1

5-HT2B Human Serotonin = biological target: T4, 5-HT2B Human Serotonin (Homo sapiens, UniProt P41595); assay: biochemical; set-up: Eurofins SafetyScreen44 radioligand binding displacement, percent inhibition, duplicate; details: radioligand binding
T4 construct: gene HTR2B
Method: as §1

5-HT3 Human Serotonin = biological target: T5, 5-HT3 Human Serotonin (Homo sapiens, UniProt P46098); assay: biochemical; set-up: Eurofins SafetyScreen44 radioligand binding displacement, percent inhibition, duplicate; details: radioligand binding
T5 construct: gene HTR3A
Method: as §1

A2A Human Adenosine = biological target: T6, A2A Human Adenosine (Homo sapiens, UniProt P29274); assay: biochemical; set-up: Eurofins SafetyScreen44 radioligand binding displacement, percent inhibition, duplicate; details: radioligand binding
T6 construct: gene ADORA2A
Method: as §1

AR Human Androgen = AR Human Androgen (Homo sapiens, UniProt P10275); assay: biochemical; set-up: Eurofins SafetyScreen44 radioligand binding displacement, percent inhibition, duplicate; details: radioligand binding
Method: as §1

CB1 Human Cannabinoid = biological target: T7, CB1 Human Cannabinoid (Homo sapiens, UniProt P21554); assay: biochemical; set-up: Eurofins SafetyScreen44 radioligand binding displacement, percent inhibition, duplicate; details: radioligand binding
T7 construct: gene CNR1
Method: as §1

CB2 Human Cannabinoid = biological target: T8, CB2 Human Cannabinoid (Homo sapiens, UniProt P34972); assay: biochemical; set-up: Eurofins SafetyScreen44 radioligand binding displacement, percent inhibition, duplicate; details: radioligand binding
T8 construct: gene CNR2
Method: as §1

[1] = biological target: T9, CCK1 (CCKA) Human Cholecystokinin (Homo sapiens, UniProt P32238); assay: biochemical; set-up: Eurofins SafetyScreen44 radioligand binding displacement, percent inhibition, duplicate; details: radioligand binding
T9 construct: gene CCKAR
Method: as §1

D1 Human Dopamine = biological target: T10, D1 Human Dopamine (Homo sapiens, UniProt P21728); assay: biochemical; set-up: Eurofins SafetyScreen44 radioligand binding displacement, percent inhibition, duplicate; details: radioligand binding
T10 construct: gene DRD1
Method: as §1

D2S Human Dopamine = biological target: T11, D2S Human Dopamine (Homo sapiens, UniProt P14416); assay: biochemical; set-up: Eurofins SafetyScreen44 radioligand binding displacement, percent inhibition, duplicate; details: radioligand binding
T11 construct: gene DRD2; D2S short isoform
Method: as §1

[2] = biological target: T12, DAT Human Dopamine Transporter (Homo sapiens, UniProt Q01959); assay: biochemical; set-up: Eurofins SafetyScreen44 radioligand binding displacement, percent inhibition, duplicate; details: radioligand binding
T12 construct: gene SLC6A3
Method: as §1

ETA Human Endothelin = biological target: T13, ETA Human Endothelin (Homo sapiens, UniProt P25101); assay: biochemical; set-up: Eurofins SafetyScreen44 radioligand binding displacement, percent inhibition, duplicate; details: radioligand binding
T13 construct: gene EDNRA
Method: as §1

GR Human Glucocorticoid = biological target: T14, GR Human Glucocorticoid (Homo sapiens, UniProt P04150); assay: biochemical; set-up: Eurofins SafetyScreen44 radioligand binding displacement, percent inhibition, duplicate; details: radioligand binding
T14 construct: gene NR3C1
Method: as §1

H1 Human Histamine = biological target: T15, H1 Human Histamine (Homo sapiens, UniProt P35367); assay: biochemical; set-up: Eurofins SafetyScreen44 radioligand binding displacement, percent inhibition, duplicate; details: radioligand binding
T15 construct: gene HRH1
Method: as §1

H2 Human Histamine = biological target: T16, H2 Human Histamine (Homo sapiens, UniProt P25021); assay: biochemical; set-up: Eurofins SafetyScreen44 radioligand binding displacement, percent inhibition, duplicate; details: radioligand binding
T16 construct: gene HRH2
Method: as §1

[3] = biological target: T17, M1 Human Acetylcholine (Muscarinic) (Homo sapiens, UniProt P11229); assay: biochemical; set-up: Eurofins SafetyScreen44 radioligand binding displacement, percent inhibition, duplicate; details: radioligand binding
T17 construct: gene CHRM1
Method: as §1

[4] = biological target: T18, M2 Human Acetylcholine (Muscarinic) (Homo sapiens, UniProt P08172); assay: biochemical; set-up: Eurofins SafetyScreen44 radioligand binding displacement, percent inhibition, duplicate; details: radioligand binding
T18 construct: gene CHRM2
Method: as §1

[5] = biological target: T19, M3 Human Acetylcholine (Muscarinic) (Homo sapiens, UniProt P20309); assay: biochemical; set-up: Eurofins SafetyScreen44 radioligand binding displacement, percent inhibition, duplicate; details: radioligand binding
T19 construct: gene CHRM3
Method: as §1

[6] = biological target: T20, NET Human Norepinephrine Transporter (Homo sapiens, UniProt P23975); assay: biochemical; set-up: Eurofins SafetyScreen44 radioligand binding displacement, percent inhibition, duplicate; details: radioligand binding
T20 construct: gene SLC6A2
Method: as §1

V1A Human Vasopressin = biological target: T21, V1A Human Vasopressin (Homo sapiens, UniProt P37288); assay: biochemical; set-up: Eurofins SafetyScreen44 radioligand binding displacement, percent inhibition, duplicate; details: radioligand binding
T21 construct: gene AVPR1A
Method: as §1

[7] = biological target: T22, alpha1A Human Adrenoceptor (Homo sapiens, UniProt P35348); assay: biochemical; set-up: Eurofins SafetyScreen44 radioligand binding displacement, percent inhibition, duplicate; details: radioligand binding
T22 construct: gene ADRA1A
Method: as §1

[8] = biological target: T23, alpha2A Human Adrenoceptor (Homo sapiens, UniProt P08913); assay: biochemical; set-up: Eurofins SafetyScreen44 radioligand binding displacement, percent inhibition, duplicate; details: radioligand binding
T23 construct: gene ADRA2A
Method: as §1

beta1 Human Adrenoceptor = biological target: T24, beta1 Human Adrenoceptor (Homo sapiens, UniProt P08588); assay: biochemical; set-up: Eurofins SafetyScreen44 radioligand binding displacement, percent inhibition, duplicate; details: radioligand binding
T24 construct: gene ADRB1
Method: as §1

beta2 Human Adrenoceptor = biological target: T25, beta2 Human Adrenoceptor (Homo sapiens, UniProt P07550); assay: biochemical; set-up: Eurofins SafetyScreen44 radioligand binding displacement, percent inhibition, duplicate; details: radioligand binding
T25 construct: gene ADRB2
Method: as §1

delta (DOP) Human Opioid = biological target: T26, delta (DOP) Human Opioid (Homo sapiens, UniProt P41143); assay: biochemical; set-up: Eurofins SafetyScreen44 radioligand binding displacement, percent inhibition, duplicate; details: radioligand binding
T26 construct: gene OPRD1
Method: as §1

hERG = biological target: T27, hERG (Homo sapiens, UniProt Q12809); assay: in vitro; set-up: Eurofins SafetyScreen44 radioligand binding displacement, percent inhibition, duplicate; details: radioligand binding
T27 construct: gene KCNH2
Method: as §1

kappa (KOP) Human Opioid = biological target: T28, kappa (KOP) Human Opioid (Homo sapiens, UniProt P41145); assay: biochemical; set-up: Eurofins SafetyScreen44 radioligand binding displacement, percent inhibition, duplicate; details: radioligand binding
T28 construct: gene OPRK1
Method: as §1

mu (MOP) Human Opioid = biological target: T29, mu (MOP) Human Opioid (Homo sapiens, UniProt P35372); assay: biochemical; set-up: Eurofins SafetyScreen44 radioligand binding displacement, percent inhibition, duplicate; details: radioligand binding
T29 construct: gene OPRM1
Method: as §1

[9] = biological target: T30, nAChR (alpha4/beta2) Human Ion Channel (Homo sapiens, UniProt P17787+P43681); assay: biochemical; set-up: Eurofins SafetyScreen44 radioligand binding displacement, percent inhibition, duplicate; details: radioligand binding
T30 construct: gene CHRNB2
Method: as §1

Acetylcholinesterase = biological target: T31, Acetylcholinesterase (Homo sapiens, UniProt P22303); assay: biochemical; set-up: Eurofins SafetyScreen44 enzymatic assay, percent inhibition, duplicate; details: enzymatic assay
T31 construct: gene ACHE
Method: as §1

[10] = biological target: T32, COX1 Human Cyclooxygenase (Homo sapiens, UniProt P23219); assay: biochemical; set-up: Eurofins SafetyScreen44 enzymatic assay, percent inhibition, duplicate; details: enzymatic assay
T32 construct: gene PTGS1
Method: as §1

[11] = biological target: T33, COX2 Human Cyclooxygenase (Homo sapiens, UniProt P35354); assay: biochemical; set-up: Eurofins SafetyScreen44 enzymatic assay, percent inhibition, duplicate; details: enzymatic assay
T33 construct: gene PTGS2
Method: as §1

[12] = biological target: T34, Monoamine Oxidase A (MAO-A) (Homo sapiens, UniProt P21397); assay: biochemical; set-up: Eurofins SafetyScreen44 enzymatic assay, percent inhibition, duplicate; details: enzymatic assay
T34 construct: gene MAOA
Method: as §1

[13] = biological target: PDE3A Human Phosphodiesterase (Homo sapiens, UniProt Q14432); assay: biochemical; set-up: Eurofins SafetyScreen44 enzymatic assay, percent inhibition, duplicate; details: enzymatic assay
Method: as §1

[14] = biological target: T35, PDE4D2 Human Phosphodiesterase (Homo sapiens, UniProt Q08499); assay: biochemical; set-up: Eurofins SafetyScreen44 enzymatic assay, percent inhibition, duplicate; details: enzymatic assay
T35 construct: gene PDE4D; PDE4D2 isoform
Method: as §1

T3 sequence (P28223 whole entry): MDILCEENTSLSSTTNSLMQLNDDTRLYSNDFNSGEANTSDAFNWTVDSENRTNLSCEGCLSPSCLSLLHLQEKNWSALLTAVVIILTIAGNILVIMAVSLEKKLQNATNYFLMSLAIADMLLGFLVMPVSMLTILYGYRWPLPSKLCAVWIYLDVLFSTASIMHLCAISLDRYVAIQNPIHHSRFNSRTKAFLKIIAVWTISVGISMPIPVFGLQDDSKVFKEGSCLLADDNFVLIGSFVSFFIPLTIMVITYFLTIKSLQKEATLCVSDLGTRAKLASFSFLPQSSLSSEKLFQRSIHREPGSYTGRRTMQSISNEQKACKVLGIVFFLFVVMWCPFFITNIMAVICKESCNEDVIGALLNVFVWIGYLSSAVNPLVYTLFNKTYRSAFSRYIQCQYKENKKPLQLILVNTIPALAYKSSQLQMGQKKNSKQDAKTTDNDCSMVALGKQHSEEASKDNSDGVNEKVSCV
T12 sequence (Q01959 whole entry): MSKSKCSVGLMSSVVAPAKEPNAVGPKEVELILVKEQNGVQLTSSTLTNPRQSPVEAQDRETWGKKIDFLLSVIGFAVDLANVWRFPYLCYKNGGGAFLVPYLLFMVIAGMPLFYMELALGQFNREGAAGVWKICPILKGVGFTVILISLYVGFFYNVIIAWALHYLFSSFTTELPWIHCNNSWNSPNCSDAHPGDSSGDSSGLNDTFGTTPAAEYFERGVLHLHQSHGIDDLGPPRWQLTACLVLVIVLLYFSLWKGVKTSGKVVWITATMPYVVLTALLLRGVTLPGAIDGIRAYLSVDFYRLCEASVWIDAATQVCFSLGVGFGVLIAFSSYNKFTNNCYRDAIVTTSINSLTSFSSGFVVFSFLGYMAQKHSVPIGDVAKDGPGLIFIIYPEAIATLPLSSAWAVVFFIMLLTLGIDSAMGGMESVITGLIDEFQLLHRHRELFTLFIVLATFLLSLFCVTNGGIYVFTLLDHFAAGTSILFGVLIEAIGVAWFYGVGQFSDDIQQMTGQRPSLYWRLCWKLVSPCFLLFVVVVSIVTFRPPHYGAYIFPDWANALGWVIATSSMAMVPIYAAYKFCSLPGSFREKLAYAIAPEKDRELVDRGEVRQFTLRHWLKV
T24 sequence (P08588 whole entry): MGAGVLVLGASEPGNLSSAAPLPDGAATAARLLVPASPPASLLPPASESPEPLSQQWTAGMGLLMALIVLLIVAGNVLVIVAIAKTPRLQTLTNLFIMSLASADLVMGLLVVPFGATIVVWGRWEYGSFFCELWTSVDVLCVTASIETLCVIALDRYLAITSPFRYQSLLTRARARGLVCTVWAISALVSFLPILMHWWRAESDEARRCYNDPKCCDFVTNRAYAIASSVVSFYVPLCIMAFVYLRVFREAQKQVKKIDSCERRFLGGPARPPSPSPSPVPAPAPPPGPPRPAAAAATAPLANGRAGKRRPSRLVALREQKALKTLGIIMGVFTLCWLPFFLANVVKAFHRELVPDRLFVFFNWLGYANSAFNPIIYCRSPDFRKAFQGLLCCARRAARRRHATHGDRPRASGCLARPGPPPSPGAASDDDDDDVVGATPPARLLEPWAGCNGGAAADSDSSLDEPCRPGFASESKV
T22 sequence (P35348 whole entry): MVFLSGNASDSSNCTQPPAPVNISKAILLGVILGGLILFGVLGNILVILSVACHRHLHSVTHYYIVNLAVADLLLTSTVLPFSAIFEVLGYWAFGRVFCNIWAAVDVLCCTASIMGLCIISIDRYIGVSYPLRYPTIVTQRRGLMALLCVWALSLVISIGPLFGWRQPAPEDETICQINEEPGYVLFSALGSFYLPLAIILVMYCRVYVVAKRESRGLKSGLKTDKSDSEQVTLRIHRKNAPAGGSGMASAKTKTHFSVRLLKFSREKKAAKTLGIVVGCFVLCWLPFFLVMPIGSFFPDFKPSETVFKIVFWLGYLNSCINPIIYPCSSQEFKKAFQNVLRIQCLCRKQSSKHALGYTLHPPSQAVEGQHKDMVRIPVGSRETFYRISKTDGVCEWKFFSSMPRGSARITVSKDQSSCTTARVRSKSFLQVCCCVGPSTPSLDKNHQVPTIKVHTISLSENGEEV
T15 sequence (P35367 whole entry): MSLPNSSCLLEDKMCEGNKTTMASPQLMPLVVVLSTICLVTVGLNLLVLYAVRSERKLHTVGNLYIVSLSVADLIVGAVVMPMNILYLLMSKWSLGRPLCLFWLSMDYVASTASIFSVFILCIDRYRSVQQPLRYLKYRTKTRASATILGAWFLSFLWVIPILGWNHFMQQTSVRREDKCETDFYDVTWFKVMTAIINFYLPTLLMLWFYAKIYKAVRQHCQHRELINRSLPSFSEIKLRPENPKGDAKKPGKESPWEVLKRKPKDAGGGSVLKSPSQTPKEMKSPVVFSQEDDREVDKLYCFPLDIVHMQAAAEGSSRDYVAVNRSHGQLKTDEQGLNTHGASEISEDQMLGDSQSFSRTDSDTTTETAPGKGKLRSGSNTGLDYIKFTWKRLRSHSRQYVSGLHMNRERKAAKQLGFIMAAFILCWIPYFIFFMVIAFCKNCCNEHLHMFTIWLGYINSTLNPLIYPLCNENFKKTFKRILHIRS
T29 sequence (P35372 whole entry): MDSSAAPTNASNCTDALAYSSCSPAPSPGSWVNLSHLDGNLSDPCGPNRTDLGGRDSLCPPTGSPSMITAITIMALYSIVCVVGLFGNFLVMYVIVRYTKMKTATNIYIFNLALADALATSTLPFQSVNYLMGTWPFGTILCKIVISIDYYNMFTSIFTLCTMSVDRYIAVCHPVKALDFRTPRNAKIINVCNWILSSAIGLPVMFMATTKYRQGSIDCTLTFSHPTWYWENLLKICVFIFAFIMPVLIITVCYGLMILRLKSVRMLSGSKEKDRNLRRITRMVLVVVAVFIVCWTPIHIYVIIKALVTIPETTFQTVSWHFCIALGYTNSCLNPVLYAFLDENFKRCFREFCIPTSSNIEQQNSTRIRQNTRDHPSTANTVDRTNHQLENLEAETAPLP
T21 sequence (P37288 whole entry): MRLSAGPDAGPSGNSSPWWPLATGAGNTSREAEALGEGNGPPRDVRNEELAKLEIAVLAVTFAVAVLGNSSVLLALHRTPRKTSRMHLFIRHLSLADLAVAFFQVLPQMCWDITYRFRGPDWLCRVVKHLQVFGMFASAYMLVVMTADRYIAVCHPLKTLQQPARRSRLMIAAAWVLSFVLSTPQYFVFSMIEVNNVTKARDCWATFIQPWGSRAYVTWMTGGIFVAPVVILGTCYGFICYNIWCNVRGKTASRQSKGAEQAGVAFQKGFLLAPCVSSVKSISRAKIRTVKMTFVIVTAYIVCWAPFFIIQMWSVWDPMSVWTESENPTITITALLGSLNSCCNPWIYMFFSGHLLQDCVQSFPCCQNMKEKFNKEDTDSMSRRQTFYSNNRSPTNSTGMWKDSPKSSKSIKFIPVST
T17 sequence (P11229 whole entry): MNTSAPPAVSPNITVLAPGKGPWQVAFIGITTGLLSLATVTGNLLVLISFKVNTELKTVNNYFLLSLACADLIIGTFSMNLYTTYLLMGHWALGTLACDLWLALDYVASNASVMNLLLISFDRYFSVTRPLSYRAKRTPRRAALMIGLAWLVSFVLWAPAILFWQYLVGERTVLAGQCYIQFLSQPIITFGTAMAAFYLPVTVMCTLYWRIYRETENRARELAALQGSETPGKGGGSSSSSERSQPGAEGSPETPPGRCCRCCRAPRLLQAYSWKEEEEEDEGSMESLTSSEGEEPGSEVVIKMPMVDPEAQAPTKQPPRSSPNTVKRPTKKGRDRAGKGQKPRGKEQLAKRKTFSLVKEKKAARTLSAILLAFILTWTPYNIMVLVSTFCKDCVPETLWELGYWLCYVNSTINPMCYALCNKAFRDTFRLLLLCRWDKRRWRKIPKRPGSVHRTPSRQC
T5 sequence (P46098 whole entry): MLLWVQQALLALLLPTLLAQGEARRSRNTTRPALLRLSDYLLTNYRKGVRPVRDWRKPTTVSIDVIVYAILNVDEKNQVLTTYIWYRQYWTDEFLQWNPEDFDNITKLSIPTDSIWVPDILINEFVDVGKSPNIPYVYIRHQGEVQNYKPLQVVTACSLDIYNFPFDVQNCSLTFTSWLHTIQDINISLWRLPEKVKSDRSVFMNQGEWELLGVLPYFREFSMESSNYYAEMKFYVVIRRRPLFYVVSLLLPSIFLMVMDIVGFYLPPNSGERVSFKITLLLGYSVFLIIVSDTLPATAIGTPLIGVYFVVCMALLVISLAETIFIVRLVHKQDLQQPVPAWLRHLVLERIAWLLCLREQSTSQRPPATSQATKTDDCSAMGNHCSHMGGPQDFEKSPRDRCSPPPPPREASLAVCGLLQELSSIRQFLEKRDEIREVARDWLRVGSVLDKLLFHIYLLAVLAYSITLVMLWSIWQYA
T6 sequence (P29274 whole entry): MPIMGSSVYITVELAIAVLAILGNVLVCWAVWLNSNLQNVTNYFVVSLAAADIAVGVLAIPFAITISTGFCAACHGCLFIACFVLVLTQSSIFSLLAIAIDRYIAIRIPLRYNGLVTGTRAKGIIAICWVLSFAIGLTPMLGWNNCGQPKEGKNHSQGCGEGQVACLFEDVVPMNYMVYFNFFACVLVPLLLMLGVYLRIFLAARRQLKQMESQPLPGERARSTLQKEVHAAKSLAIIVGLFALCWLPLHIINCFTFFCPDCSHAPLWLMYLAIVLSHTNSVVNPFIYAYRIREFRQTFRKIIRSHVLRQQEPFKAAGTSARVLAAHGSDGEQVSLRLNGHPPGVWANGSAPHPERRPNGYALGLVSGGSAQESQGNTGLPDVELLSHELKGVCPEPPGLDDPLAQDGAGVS

Cc1c(CC(=O)O)c(=O)oc2c(C)c(OCc3cccc(I)c3)ccc12 [4az (in ref. 19), DRAinh-A270]
IC50 (SLC26A3 (human)): 20 nM | IC50 (SLC26A3 (murine)): ~60 nM | inhibition at 10 µM (5-HT1A Human Serotonin): 0% | inhibition at 10 µM (5-HT1B Human Serotonin): -1% | inhibition at 10 µM (5-HT2A Human Serotonin): 17% | inhibition at 10 µM (5-HT2B Human Serotonin): 64% | inhibition at 10 µM (5-HT3 Human Serotonin): -6% | inhibition at 10 µM (A2A Human Adenosine): 46% | inhibition at 10 µM (AR Human Androgen): 13% | inhibition at 10 µM (CB1 Human Cannabinoid): -3% | inhibition at 10 µM (CB2 Human Cannabinoid): -1% | inhibition at 10 µM [1]: -5% | inhibition at 10 µM (D1 Human Dopamine): 13% | inhibition at 10 µM (D2S Human Dopamine): 2% | inhibition at 10 µM [2]: -2% | inhibition at 10 µM (ETA Human Endothelin): 13% | inhibition at 10 µM (GR Human Glucocorticoid): -7% | inhibition at 10 µM (H1 Human Histamine): 27% | inhibition at 10 µM (H2 Human Histamine): -2% | inhibition at 10 µM [3]: 9% | inhibition at 10 µM [4]: -3% | inhibition at 10 µM [5]: 8% | inhibition at 10 µM [6]: 29% | inhibition at 10 µM (V1A Human Vasopressin): -1% | inhibition at 10 µM [7]: 5% | inhibition at 10 µM [8]: 47% | inhibition at 10 µM (beta1 Human Adrenoceptor): 14% | inhibition at 10 µM (beta2 Human Adrenoceptor): 3% | inhibition at 10 µM (delta (DOP) Human Opioid): -3% | inhibition at 10 µM (hERG): 19% | inhibition at 10 µM (kappa (KOP) Human Opioid): 7% | inhibition at 10 µM (mu (MOP) Human Opioid): -5% | inhibition at 10 µM [9]: -3% | inhibition at 10 µM (Acetylcholinesterase): 10% | inhibition at 10 µM [10]: -1% | inhibition at 10 µM [11]: 15% | inhibition at 10 µM [12]: 73% | inhibition at 10 µM [13]: 4% | inhibition at 10 µM [14]: -2%
